# Results from article PMC11728001, “Design, Synthesis, and Biological Evaluation of Novel Urea-Containing Carnosic Acid Derivatives with Anticancer Activity” (International Journal of Molecular Sciences, 2024).
# How the values were obtained:
# Type in all cases: cell-based
# [1] = system: HCT116 colorectal cancer cell line; assay: MTT cell viability assay, HCT116; details: Homo sapiens, HCT-116, 72 h incubation, mean ± SD
# Protocol: The antiproliferative activity of CA 1 and its derivatives was evaluated against a colorectal cancer (CRC) cell line (HCT116) using the MTT assay. The anticancer drug cisplatin was used as the reference drug.
# (§1) The effect of the compounds on cell viability was evaluated using the MTT assay. HCT116 (3000 cells/well), SW620 (8000 cells/well), SW480 (6000 cells/well), Caco-2 (4000 cells/well), A375 (1500 cells/well), MiaPaca-2 (2000 cells/well), and BJ (10,000 cells/well) cells were seeded in 96-well plates. After 24 h, the growth medium was replaced with a fresh medium containing the desired concentration of the compound or DMSO (control). After 72 h of incubation, the supernatant was removed and 100 µL of a mixture (1:1) of filtered MTT solution (1 mg/mL in PBS) with FBS-free medium was added to each well. After 1 h of incubation at 37 °C, the mixture was removed and 100 µL of DMSO was added to each well to dissolve the formed formazan crystals. Absorbance was immediately measured at 570 nm using a Benchmark Plus Microplate Reader (Bio-Rad Laboratories, Hercules, CA, USA). IC50 values were calculated using GraphPad Prism 9 software (GraphPad Software, San Diego, CA, USA) and expressed as the mean ± standard deviation (SD) of at least three independent experiments.
# SW480 cells [2] = assay: MTT cell viability assay, SW480; details: Homo sapiens, 72 h incubation, mean ± SD
# Protocol: as §1
# SW620 cells = assay: MTT cell viability assay, SW620; details: Homo sapiens, SW-620, 72 h incubation, mean ± SD
# Protocol: as §1
# Caco-2 cells = assay: MTT cell viability assay, Caco-2; details: Homo sapiens, 72 h incubation, mean ± SD
# Protocol: as §1
# A375 melanoma cells = assay: MTT cell viability assay, A375; details: Homo sapiens, A-375, 72 h incubation, mean ± SD
# Protocol: as §1
# SW480 cells [3] = assay: Cell proliferation assay and cell doubling time; details: SW480 cells treated at IC50 concentration; control 42 h
# Protocol: SW480 cells were seeded at a concentration of 1.68 × 10^5 cells per well in 6-well plates and incubated at 37 °C. […] Prior to treatment initiation (0 h), cells were trypsinized, washed with DPBS, and collected by centrifugation. The collected cells were resuspended in DPBS containing trypan blue and examined using an Invitrogen Countess 3 Automated Cell Counter (Thermo Fisher Scientific, Waltham, MA, USA) to determine the cell number and viability. This procedure was replicated at various treatment time points (24, 48, and 72 h) to generate a cell proliferation curve depicting the changes over time. Cell doubling time was calculated by dividing the natural logarithm of 2 by the growth rate.
# SW480 cells [4] = assay: Cell cycle assay (PI, FACS); details: SW480, IC50 concentration
# Protocol: SW480 cells were seeded in 6-well plates and treated as described for the apoptosis assay. After centrifugation, the cells were resuspended in 500 µL DPBS and added dropwise to 4.5 mL 70% (v/v) cold ethanol. The cell suspension was kept at −20 °C for a minimum of 4 h. The cell suspension was then centrifuged, washed with cold DPBS, resuspended in 360 µL DPBS containing 10 µL RNase (10 mg/mL), and incubated for 1 h, at 37 °C, with agitation. Before FACS analysis, 20 µL PI solution (1 mg/mL) was added to the samples. FACS analysis was performed using a Gallios flow cytometer (Beckman Coulter, Brea, CA, USA) at 488 nm. Data were acquired from 1 × 10^4 cells and subsequently analyzed using the multicycle software provided by Phoenix Flow Systems (San Diego, CA, USA).
# CDK4 = assay: Western blot, CDK4 expression in SW480 cells; details: SW480, IC50 concentration, 24 and 72 h
# Protocol: (§2) SW480 cells (1.68 × 10^5 cells/well) were seeded in 6-well plates and incubated at 37 °C for 24 h. […] At the end of the treatment period, cells were washed twice with ice-cold DPBS and incubated for 30 min. at 4 °C with lysis buffer containing 20 mM Tris-HCl (pH 7.5), 1 mM DTT, 0.2% Triton X-100, 1 mM Na-EDTA, 0.5 mM sodium deoxycholate, 1% proteases inhibitor cocktail, and 0.5% phosphatases inhibitor cocktail. The cells were scraped, sonicated, and centrifuged at 12,000× g for 20 min. at 4 °C. The supernatants were recovered, and the protein concentration was quantified using Pierce^TM BCA protein assay reagents A and B and Pierce^TM bovine serum albumin standard ampules (2 mg/mL).
# (§3) Membranes were blocked with 5% skim milk in PBS-Tween-20 (0.1%) for 1 h at room temperature, following its incubation with the specific primary antibodies overnight at 4 °C (CDK4, CDK6, and SOD2 (MnSOD)). Exceptionally, the primary antibody against actin was only incubated for 30 min. at room temperature. The membranes were then washed with PBS-Tween-20 (0.1%) and incubated for 40 min. with an anti-mouse secondary antibody or for 1 h with an anti-rabbit secondary antibody. After incubation, the membranes were washed again with PBS-Tween-20 (0.1%) and treated with the Immobilon Western Chemiluminescent HRP Substrate Kit. […]
# CDK6 = assay: Western blot, CDK6 expression in SW480 cells; details: SW480, IC50 concentration, 24, 48 and 72 h
# Protocol: as §2, §3
# [5] = system: intracellular ROS in SW480 cells; assay: ROS determination assay (H2DCFDA, flow cytometry); details: SW480, IC50 concentration
# Protocol: Intracellular ROS levels were assessed by flow cytometry using H2DCFDA probe. SW480 cells were cultured in 6-well plates and treated according to the procedure described for the apoptosis assay. After incubation for 24, 48, and 72 h, adherent cells were collected by centrifugation after trypsinization and washed with DPBS. The cells were then incubated with 1 mL HBSS containing 2 mM L-glutamine and 50 µM H2DCFDA probe at 37 °C for 45 min. in a cell culture incubator. Next, the cellular suspension was washed with 2 mL of DPBS and the cells were collected by centrifugation. Finally, the cells were gently resuspended in 350 µL DPBS containing 20 µg/mL PI solution (1 mg/mL). The intracellular internalized probe reacts with ROS and undergoes transformation into 2′,7′-dichlorofluorescein (DCF). DCF fluorescence data were collected from 1 × 10^4 PI-negative cells by using a Gallios flow cytometer (Beckman Coulter, Brea, CA, USA) at 520 nm.
# SOD2 (MnSOD) = assay: Western blot, SOD2 (MnSOD) expression in SW480 cells; details: SW480, IC50 concentration, 24, 48 and 72 h
# Protocol: as §2, §3
smiles,measurement,setting,value
"CC(=O)Oc1c(C(C)C)cc2c(c1OC(C)=O)[C@@]1(NC(=O)NCCc3cccc(Cl)c3)CCCC(C)(C)[C@@H]1CC2 [Compound 14, (4bR,8aS)-4b-(3-(3-chlorophenethyl)ureido)-2-isopropyl-8,8-dimethyl-4b,5,6,7,8,8a,9,10-octahydrophenanthrene-3,4-diyl diacetate]",IC50,[1],9.8 ± 0.5 µM
same,IC50,SW480 cells [2],6.1 ± 0.3 µM
same,IC50,SW620 cells,6.1 ± 0.3 µM
same,IC50,Caco-2 cells,8 ± 0.5 µM
same,IC50,A375 melanoma cells,7 ± 0.4 µM
same,cell doubling time,SW480 cells [3],70 h
same,percentage of cells in the G0/G1 phase,"SW480 cells [4]; 24 h, control 50.3%",71%
same,percentage of cells in the G0/G1 phase,"SW480 cells [4]; at the three time points (24, 48, 72 h)",higher than 66.6%
same,CDK4 expression versus untreated cells,CDK4,downregulation
same,CDK6 expression versus untreated cells,CDK6,downregulation
same,percentage of intracellular ROS compared with control,[5]; 24 h,56%
same,percentage of intracellular ROS compared with control,[5]; 48 h,71%
same,change in ROS levels,[5]; 72 h,no significant changes
same,expression of SOD2 (MnSOD),SOD2 (MnSOD),no significant changes
